Data from patent US5447942A, “N-derivatives of (phenylethyl-β-ol) amine, a process for their preparation and pharamaceutical compositions containing the same” (Societe de Conseils de Recherches et d'Applications …, priority 1992, dated 1995).
Where two headings read alike, the source gives them in different places.

Assays:
[1] = tested on: acetylcholine induced bronchoconstriction; experiment: inhibition of acetylcholine induced bronchoconstriction, Konzett and Rossler method (Table B); type: in vivo, Male Hartley Guinea Pigs; conditions: IV; for inhibition in vivo at 0.13 µmol/kg / inhibition in vivo at 0.42 µmol/kg / inhibition in vivo at 1.53 µmol/kg / inhibition in vivo at 3.6 µmol/kg / inhibition in vivo at 0.46 µmol/kg / inhibition in vivo at 1.5 µmol/kg / inhibition in vivo at 1.48 µmol/kg / inhibition in vivo at 0.47 µmol/kg / inhibition in vivo at 0.48 µmol/kg: Cavia porcellus
Description: Male Hartley Guinea Pigs (450-500 g) were anaesthetised with ethyl carbamate and prepared for recording bronchoconstriction according to Konzett and Rossler method (Naunym Schmiedebergers Arch. Exp. Path. Pharmakol (1940) 195, 71). To abolish spontaneous respiration, an injection IV of vecuronium bromide (2 mg/kg) was made. Bronchoconstriction was induced by IV injection of Acetylcholine and the animals received one dose of β agonist compound (IV) 5 minutes later.

β adrenoceptors = experiment: radioligand binding studies in lung membrane (Table A, binding affinity)
Excerpt: The results are summarised in Table A. Generally, the activity is better for the trans than the cis isomer.

[2] = 5 min, 0.13 μmol/kg, 5 mn, read-out: bronchoconstriction protection, score 5 mn
[3] = 0.25 h, 0.13 μmol/kg, 15 mn, read-out: bronchoconstriction protection, score 15 mn
[4] = 0.5 h, 0.13 μmol/kg, 30 mn, read-out: bronchoconstriction protection, score 30 mn
[5] = 5 min, 0.46 μmol/kg, 5 mn, read-out: bronchoconstriction protection, score 5 mn
[6] = 0.25 h, 0.46 μmol/kg, 15 mn, read-out: bronchoconstriction protection, score 15 mn
[7] = 0.5 h, 0.46 μmol/kg, 30 mn, read-out: bronchoconstriction protection, score 30 mn

SMILES	Ki (β adrenoceptors)	bronchoconstriction protection, duration of action ([1]; 0.46 μmol/kg)	inhibition in vivo at 0.46 µmol/kg [1, 5]	inhibition in vivo at 0.46 µmol/kg [1, 6]	inhibition in vivo at 0.46 µmol/kg [1, 7]	also measured
COc1cc([C@H]2CC[C@H](CNCC(O)c3ccc(O)c(CO)c3)O2)cc(OC)c1OC (relative stereo) [Example 2 (trans), 2-(3',4',5'-trimethoxyphenyl)-5-[N-[β-(3'-hydroxymethyl-4'-hydroxy-phenyl)-β-hydroxy-ethyl]-aminomethyl]-tetrahydrofuran]	80 nM	–	–	–	–	bronchoconstriction protection, duration of action ([1]; 0.13 μmol/kg): 30 mn; bronchoconstriction protection, duration of action ([1]; 0.42 μmol/kg): > 50 mn; inhibition in vivo at 0.13 µmol/kg [1, 2]: > 75%; inhibition in vivo at 0.42 µmol/kg ([1]; 5 min, 0.42 μmol/kg, 5 mn, read-out: bronchoconstriction protection, score 5 mn): > 75%; inhibition in vivo at 0.13 µmol/kg [1, 3]: 50 to 75%; inhibition in vivo at 0.42 µmol/kg ([1]; 0.25 h, 0.42 μmol/kg, 15 mn, read-out: bronchoconstriction protection, score 15 mn): > 75%; inhibition in vivo at 0.13 µmol/kg [1, 4]: 20 to 50%; inhibition in vivo at 0.42 µmol/kg ([1]; 0.5 h, 0.42 μmol/kg, 30 mn, read-out: bronchoconstriction protection, score 30 mn): > 75%
COc1ccc([C@H]2CC[C@H](CNCC(O)c3ccc(O)c(CO)c3)O2)c(OC)c1OC (relative stereo) [Example 3 (trans), 2-(2',3',4'-trimethoxyphenyl)-5-[N-[β-(3'-hydroxymethyl-4'-hydroxy-phenyl)-β-hydroxy-ethyl]-aminomethyl]-tetrahydrofuran]	1600 nM	–	–	–	–	bronchoconstriction protection, duration of action ([1]; 1.53 μmol/kg): 5 mn; bronchoconstriction protection, duration of action ([1]; 3.6 μmol/kg): 30 mn; inhibition in vivo at 1.53 µmol/kg ([1]; 5 min, 1.53 μmol/kg, 5 mn, read-out: bronchoconstriction protection, score 5 mn): 20 to 50%; inhibition in vivo at 3.6 µmol/kg ([1]; 5 min, 3.6 μmol/kg, 5 mn, read-out: bronchoconstriction protection, score 5 mn): 50 to 75%; inhibition in vivo at 1.53 µmol/kg ([1]; 0.25 h, 1.53 μmol/kg, 15 mn, read-out: bronchoconstriction protection, score 15 mn): < 20%; inhibition in vivo at 3.6 µmol/kg ([1]; 0.25 h, 3.6 μmol/kg, 15 mn, read-out: bronchoconstriction protection, score 15 mn): 20 to 50%; inhibition in vivo at 1.53 µmol/kg ([1]; 0.5 h, 1.53 μmol/kg, 30 mn, read-out: bronchoconstriction protection, score 30 mn): < 20%; inhibition in vivo at 3.6 µmol/kg ([1]; 0.5 h, 3.6 μmol/kg, 30 mn, read-out: bronchoconstriction protection, score 30 mn): 20 to 50%
OCc1cc(C(O)CNC[C@@H]2CC[C@H](c3ccccc3Cl)O2)ccc1O (relative stereo) [Example 4 (cis), 2-(2'-chlorophenyl)-5-[N-[β-(3'-hydroxymethyl-4'-hydroxy-phenyl)-β-hydroxy-ethyl]-aminomethyl]-tetrahydrofuran]	347 nM	10 mn	50 to 75%	< 20%	< 20%	bronchoconstriction protection, duration of action ([1]; 1.5 μmol/kg): < 40 mn; inhibition in vivo at 1.5 µmol/kg ([1]; 5 min, 1.5 μmol/kg, 5 mn, read-out: bronchoconstriction protection, score 5 mn): 50 to 75%; inhibition in vivo at 1.5 µmol/kg ([1]; 0.25 h, 1.5 μmol/kg, 15 mn, read-out: bronchoconstriction protection, score 15 mn): 50 to 75%; inhibition in vivo at 1.5 µmol/kg ([1]; 0.5 h, 1.5 μmol/kg, 30 mn, read-out: bronchoconstriction protection, score 30 mn): 20 to 50%
OCc1cc(C(O)CNC[C@H]2CC[C@H](c3ccccc3Cl)O2)ccc1O (relative stereo) [Example 4 (trans), 2-(2'-chlorophenyl)-5-[N-[β-(3'-hydroxymethyl-4'-hydroxy-phenyl)-β-hydroxy-ethyl]-aminomethyl]-tetrahydrofuran]	400 nM	10 mn	> 75%	< 20%	< 20%	bronchoconstriction protection, duration of action ([1]; 1.48 μmol/kg): > 25 mn; inhibition in vivo at 1.48 µmol/kg ([1]; 5 min, 1.48 μmol/kg, 5 mn, read-out: bronchoconstriction protection, score 5 mn): > 75%; inhibition in vivo at 1.48 µmol/kg ([1]; 0.25 h, 1.48 μmol/kg, 15 mn, read-out: bronchoconstriction protection, score 15 mn): 50 to 75%; inhibition in vivo at 1.48 µmol/kg ([1]; 0.5 h, 1.48 μmol/kg, 30 mn, read-out: bronchoconstriction protection, score 30 mn): 50 to 75%
OCc1cc(C(O)CNC[C@@H]2CC[C@H](c3cccc(Cl)c3)O2)ccc1O (relative stereo) [Example 5 (cis), 2-(3'-chlorophenyl)-5-[N-[β-(3'-hydroxymethyl-4'-hydroxy-phenyl)-β-hydroxy-ethyl]-aminomethyl]-tetrahydrofuran]	760 nM	–	–	–	–	bronchoconstriction protection, duration of action ([1]; 0.47 μmol/kg): < 10 mn; inhibition in vivo at 0.47 µmol/kg ([1]; 5 min, 0.47 μmol/kg, 5 mn, read-out: bronchoconstriction protection, score 5 mn): 20 to 50%; inhibition in vivo at 0.47 µmol/kg ([1]; 0.25 h, 0.47 μmol/kg, 15 mn, read-out: bronchoconstriction protection, score 15 mn): < 20%; inhibition in vivo at 0.47 µmol/kg ([1]; 0.5 h, 0.47 μmol/kg, 30 mn, read-out: bronchoconstriction protection, score 30 mn): < 20%
OCc1cc(C(O)CNC[C@H]2CC[C@H](c3cccc(Cl)c3)O2)ccc1O (relative stereo) [Example 5 (trans), 2-(3'-chlorophenyl)-5-[N-[β-(3'-hydroxymethyl-4'-hydroxy-phenyl)-β-hydroxy-ethyl]-aminomethyl]-tetrahydrofuran]	750 nM	> 20 mn	50 to 75%	20 to 50%	20 to 50%	–
COc1ccc([C@H]2CC[C@@H](CNCC(O)c3ccc(O)c(CO)c3)O2)cc1OC (relative stereo) [Example 8 (cis), 2-(3',4'-dimethoxyphenyl)-5-[N-[β-(3'-hydroxymethyl-4'-hydroxy-phenyl)-β-hydroxyethyl]-aminomethyl]-tetrahydrofuran]	1100 nM	–	–	–	–	bronchoconstriction protection, duration of action ([1]; 0.48 μmol/kg): < 30 mn; inhibition in vivo at 0.48 µmol/kg ([1]; 5 min, 0.48 μmol/kg, 5 mn, read-out: bronchoconstriction protection, score 5 mn): 50 to 75%; inhibition in vivo at 0.48 µmol/kg ([1]; 0.25 h, 0.48 μmol/kg, 15 mn, read-out: bronchoconstriction protection, score 15 mn): 20 to 50%; inhibition in vivo at 0.48 µmol/kg ([1]; 0.5 h, 0.48 μmol/kg, 30 mn, read-out: bronchoconstriction protection, score 30 mn): < 20%
COc1ccc([C@H]2CC[C@H](CNCC(O)c3ccc(O)c(CO)c3)O2)cc1OC (relative stereo) [Example 8 (trans), 2-(3',4'-dimethoxyphenyl)-5-[N-[β-(3'-hydroxymethyl-4'-hydroxy-phenyl)-β-hydroxyethyl]-aminomethyl]-tetrahydrofuran]	1050 nM	> 30 mn	50 to 75%	50 to 75%	20 to 50%	bronchoconstriction protection, duration of action ([1]; 0.13 μmol/kg): 30 mn; inhibition in vivo at 0.13 µmol/kg [1, 2]: 50 to 75%; inhibition in vivo at 0.13 µmol/kg [1, 3]: 20 to 50%; inhibition in vivo at 0.13 µmol/kg [1, 4]: 20 to 50%
COc1cc(C2CCC(CNCC(O)c3ccc(O)c(CO)c3)O2)cc(OC)c1OC (single isomer, unassigned) [Example 2 (trans) (+), 2-(3',4',5'-trimethoxyphenyl)-5-[N-[β-(3'-hydroxymethyl-4'-hydroxy-phenyl)-β-hydroxy-ethyl]-aminomethyl]-tetrahydrofuran]	50 nM	–	–	–	–	–
COc1cc(C2CCC(CNCC(O)c3ccc(O)c(CO)c3)O2)cc(OC)c1OC (single isomer, unassigned) [Example 2 (trans) (-), 2-(3',4',5'-trimethoxyphenyl)-5-[N-[β-(3'-hydroxymethyl-4'-hydroxy-phenyl)-β-hydroxy-ethyl]-aminomethyl]-tetrahydrofuran]	350 nM	–	–	–	–	–

Now from value to compound, other results behind:

Ki (β adrenoceptors)	SMILES	bronchoconstriction protection, duration of action ([1]; 0.46 μmol/kg)	inhibition in vivo at 0.46 µmol/kg [1, 5]	inhibition in vivo at 0.46 µmol/kg [1, 6]	inhibition in vivo at 0.46 µmol/kg [1, 7]	also measured
810 nM	COc1ccc([C@H]2CC[C@@H](CNCC(O)c3ccc(O)c(CO)c3)O2)cc1 (relative stereo) [Example 9 (cis), 2-(4'-methoxyphenyl)-5-[N-[β-(3'-hydroxymethyl-4'-hydroxy-phenyl)-β-hydroxy-ethyl]-aminomethyl]-tetrahydrofuran]	20 mn	50 to 75%	20 to 50%	< 20%	–
590 nM	COc1ccc([C@H]2CC[C@H](CNCC(O)c3ccc(O)c(CO)c3)O2)cc1 (relative stereo) [Example 9 (trans), 2-(4'-methoxyphenyl)-5-[N-[β-(3'-hydroxymethyl-4'-hydroxy-phenyl)-β-hydroxy-ethyl]-aminomethyl]-tetrahydrofuran]	> 30 mn	> 75%	50 to 75%	20 to 50%	–
1900 nM	COc1cc([C@H]2CC[C@@H](CCCNCC(O)c3ccc(O)c(CO)c3)O2)cc(OC)c1OC (relative stereo) [Example 15 (cis), 2-(3',4',5'-trimethoxyphenyl)-5-[-N-[β-(3'-hydroxymethyl-4'-hydroxy-phenyl)-β-hydroxy-ethyl]-aminopropyl]-tetrahydrofuran]	–	–	–	–	–
520 nM	CCCC1CCC(CNCC(O)c2ccc(O)c(CO)c2)O1 (stereo not drawn) [Example 11, 2-propyl-5-[N-[β-(3'-hydroxymethyl-4'-hydroxy-phenyl)-β-hydroxy-ethyl]-aminomethyl]-tetrahydrofuran]	–	–	–	–	–
